{"source": "patent US9228991B2", "about": "“Methods and kits for detection of drugs” (RAMOT AT TEL-AVIV UNIVERSITY LTD., priority 2010, dated 2016)", "key": {"[1]": {"conditions": "cited from earlier work"}, "[2]": {"assay": "GHB solubility / precipitation in anti-solvents"}, "[3]": {"conditions": "cited from earlier work", "remark": "listed apart in the source"}}, "note": "Like-named read-outs stand apart in the source and are kept apart here."}
{"compound": "O=C(O)CCCO", "note": "[GHB, gamma-hydroxybutyrate]", "values": [{"measurement": "Physical Effect", "setting": "[1]; GHB dose 4-8 (very high), 4-8% in drink", "value": "Powerful deep sleep."}, {"measurement": "dose at which a dangerous overdose can occur", "setting": "[1]; depending on body weight and metabolism", "value": "two"}, {"measurement": "heavy dose", "setting": "[1]; in vivo", "value": "approximately 2.5 grams"}, {"measurement": "solubility in anti-solvent", "setting": "[2]; acetonitrile", "value": "mostly insoluble"}, {"measurement": "solubility in anti-solvent", "setting": "[2]; pure ethanol", "value": "mostly insoluble"}]}
{"compound": "CNC1(c2ccccc2Cl)CCCCC1=O", "note": "(centres unmarked) [ketamine]", "values": [{"measurement": "Physical Effect", "setting": "[3]; ketamine dose 10-80 mg (low), <0.01-0.08% in drink", "value": "Mild euphoria"}, {"measurement": "Physical Effect", "setting": "[3]; ketamine dose 130-250 mg (high), 0.13-0.25% in drink", "value": "K-hole, near comatose state"}, {"measurement": "Physical Effect", "setting": "[3]; ketamine dose >250 mg (mega), >0.25% in drink", "value": "Powerful deep sleep."}]}
